Laboratory results published in patent publication EP1247803A2, “Indolinone compounds suitable for modulation of protein kinases” (Sugen, Inc., priority 1996, dated 1998).

How the values were obtained:
MET = MET biochemical kinase assay; design: species or system human; concentration or dose not given beside the values
Method in brief: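 MET from cell lysates captured on ELISA plates via rabbit anti-MET cytoplasmic-domain antibody; compounds added and kinase reaction run in ATP and divalent-metal buffer. Receptor phosphotyrosine detected with HRP-conjugated anti-phosphotyrosine antibody and TMB colorimetry.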

EGFR = target: T1, EGFR (Homo sapiens, UniProt P00533); test: EGFR ELISA assay (in vitro kinase activity, EGFR captured from A431 cell lysate); assay type: biochemical; design: concentration or dose not given beside the values
T1 construct: Add 7 ug A431 cell lysate per well (EGFR source); endogenous in cells; host or cells: A431
T1 sequence (P00533 25-1210): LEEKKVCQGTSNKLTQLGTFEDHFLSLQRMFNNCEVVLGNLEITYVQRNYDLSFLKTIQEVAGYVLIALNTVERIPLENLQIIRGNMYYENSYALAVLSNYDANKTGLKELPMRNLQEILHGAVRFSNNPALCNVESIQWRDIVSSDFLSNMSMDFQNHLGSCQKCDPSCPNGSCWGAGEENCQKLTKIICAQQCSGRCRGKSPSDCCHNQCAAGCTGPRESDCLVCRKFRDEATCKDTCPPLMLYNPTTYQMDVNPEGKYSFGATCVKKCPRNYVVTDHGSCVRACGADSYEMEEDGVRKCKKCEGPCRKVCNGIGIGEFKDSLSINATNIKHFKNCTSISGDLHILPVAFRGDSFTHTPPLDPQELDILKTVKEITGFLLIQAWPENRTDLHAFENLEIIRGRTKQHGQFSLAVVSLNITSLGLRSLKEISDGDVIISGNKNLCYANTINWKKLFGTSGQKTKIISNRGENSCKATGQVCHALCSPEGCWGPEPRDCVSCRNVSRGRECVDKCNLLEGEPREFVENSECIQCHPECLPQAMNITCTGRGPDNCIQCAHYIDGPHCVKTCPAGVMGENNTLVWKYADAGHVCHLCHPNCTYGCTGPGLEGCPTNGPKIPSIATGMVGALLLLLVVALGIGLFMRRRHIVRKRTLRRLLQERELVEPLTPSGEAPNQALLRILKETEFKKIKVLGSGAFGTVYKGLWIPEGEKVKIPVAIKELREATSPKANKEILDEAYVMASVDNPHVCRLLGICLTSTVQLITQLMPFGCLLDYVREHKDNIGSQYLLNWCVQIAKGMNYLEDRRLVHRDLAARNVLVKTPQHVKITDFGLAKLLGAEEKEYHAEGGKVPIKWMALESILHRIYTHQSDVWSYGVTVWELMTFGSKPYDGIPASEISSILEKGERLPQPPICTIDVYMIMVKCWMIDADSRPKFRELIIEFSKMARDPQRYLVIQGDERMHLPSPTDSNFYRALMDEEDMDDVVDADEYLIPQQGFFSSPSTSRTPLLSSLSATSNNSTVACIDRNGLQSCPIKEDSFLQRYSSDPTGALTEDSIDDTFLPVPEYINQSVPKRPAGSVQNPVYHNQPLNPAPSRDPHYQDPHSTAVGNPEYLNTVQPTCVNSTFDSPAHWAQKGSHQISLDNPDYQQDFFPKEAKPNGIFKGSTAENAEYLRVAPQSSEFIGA
Method in brief: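 Receptor autophosphorylation was read by ELISA: anti-phosphotyrosine serum and an HRP-linked secondary with ABTS substrate, absorbance at 410 nm (reference 630 nm). The reaction ran 5 min with 3 µM ATP and 5 mM MnCl2 and was quenched by 20 mM EDTA. Compounds were first incubated 30 min with antibody-captured EGFR from A431 cell lysate.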

Compound | Met Kinase % Inhibition (MET) [%] | Biochem EGFR %Inhibition (EGFR) [%]
COc1ccc(OC)c(C=C2C(=O)Nc3ccc(I)cc32)c1 [10728/B02] | 61.2 | -10.5
CCOC(=O)CCc1c(C(=O)OCC)[nH]c(C=C2C(=O)Nc3c(Br)cc(Br)cc32)c1CC(=O)OCC [10718/A05] | 36.1 | -6.9
CCc1cc(CC)c(C=C2C(=O)Nc3ccc(S(=O)(=O)Nc4ccc(C(F)(F)F)cc4)cc32)[nH]1 [10727/E03] | 28.8 | 35.5
N#Cc1cccc(C=C2C(=O)Nc3ccc(S(=O)(=O)N4CCOCC4)cc32)c1 [10727/F08] | 36.9 | -5.4
COc1cc(C=C2C(=O)Nc3ccc(Br)c(C)c32)cc2c1OCO2 [10728/C11] | 45.2 | 21.8
CNS(=O)(=O)c1ccc2c(c1)C(=Cc1c(OC)cccc1OC)C(=O)N2 [10728/D03] | 13.5 | 10.8
COc1ccc(OC)c(C=C2C(=O)Nc3ccc(Br)c(C)c32)c1 [10728/C02] | 15.5 | -35.4
O=C1Nc2ccc(I)cc2C1=Cc1cc(C(F)(F)F)ccc1F [10728/B08] | 77.0 | 34.7
CCOC(=O)c1c(C)[nH]c(C=C2C(=O)Nc3c(Br)cc(Br)cc32)c1C [10718/A02] | 54.6 | 11.3
COc1cc(C=C2C(=O)Nc3ccc(I)cc32)cc(OC)c1 [10728/B04] | 67.2 | -2.0
COc1cc(N(C)C)ccc1C=C1C(=O)Nc2ccc(I)cc21 [10728/B05] | 60.4 | 26.9
Cc1c(Br)ccc2c1C(=Cc1ccc3c(c1)Cc1ccccc1-3)C(=O)N2 [10728/C06] | 22.9 | 4.2
O=C1Nc2ccc(S(=O)(=O)Nc3ccc(C(F)(F)F)cc3)cc2C1=Cc1coc2ccccc2c1=O [10727/E07] | 45.2 | 7.1
O=C1Nc2c(Br)cc(Br)cc2C1=Cc1ccc(Cl)c([N+](=O)[O-])c1 [10718/A08] | 36.8 | 5.8
O=C1Nc2c(Br)cc(Br)cc2C1=Cc1cc(C(F)(F)F)ccc1F [10728/A08] | 40.2 | 24.1
Cc1c(Br)ccc2c1C(=Cc1cccc(C(F)(F)F)c1F)C(=O)N2 [10728/C07] | 46.3 | 8.3
COc1cc(C=C2C(=O)Nc3c(Br)cc(Br)cc32)cc(OC)c1 [10728/A04] | 28.5 | 28.0
O=C1Nc2ccc(S(=O)(=O)Nc3ccc(C(F)(F)F)cc3)cc2C1=Cc1ccccc1Sc1ccc(Cl)cc1 [10727/E05] | 12.1 | 12.9
CNS(=O)(=O)c1ccc2c(c1)C(=Cc1cc(OC)ccc1OC)C(=O)N2 [10728/D02] | 21.4 | 9.9
COc1ccc(OC)c(C=C2C(=O)Nc3c(Br)cc(Br)cc32)c1 [10728/A02] | 25.6 | 9.2

Compound | Met Kinase % Inhibition (MET) [%] | Biochem EGFR %Inhibition (EGFR) [%]
Cc1[nH]c(C=C2C(=O)Nc3ccc(CCCl)cc32)c(Br)c1Br [10717/G11] | 73.8 | 71.7
O=C1Nc2ccc(CCCl)cc2C1=Cc1ccccc1Sc1ccc(Cl)cc1 [10727/G05] | 7.1 | 11.2
O=C1Nc2c(Br)cc(Br)cc2C1=Cc1c(F)cccc1C(F)(F)F [10728/A09] | 53.1 | 19.3
O=C1Nc2ccc(S(=O)(=O)N3CCOCC3)cc2C1=Cc1cc(O)ccc1O [10727/F10] | 93.4 | 74.1
CNS(=O)(=O)c1ccc2c(c1)C(=Cc1ccc3c(c1)Cc1ccccc1-3)C(=O)N2 [10728/D06] | 23.2 | 5.8
O=C1Nc2ccc(CCCl)cc2C1=Cc1cc(O)ccc1O [10727/G10] | 99.2 | 85.1
N#Cc1cccc(C=C2C(=O)Nc3ccc(S(=O)(=O)Nc4ccc(C(F)(F)F)cc4)cc32)c1 [10727/E08] | 27.0 | 25.6
O=C1Nc2ccc(S(=O)(=O)Nc3ccc(C(F)(F)F)cc3)cc2C1=Cc1cc2c(cc1Cl)OCO2 [10727/E06] | -2.2 | -9.3
CNS(=O)(=O)c1ccc2c(c1)C(=Cc1cccc(C#N)c1)C(=O)N2 [10727/D08] | 8.5 | -0.5
O=C1Nc2ccc(S(=O)(=O)N3CCOCC3)cc2C1=Cc1cc2c(cc1Cl)OCO2 [10727/F06] | 37.7 | 4.9
CNS(=O)(=O)c1ccc2c(c1)C(=Cc1ccccc1Sc1ccc(Cl)cc1)C(=O)N2 [10727/D05] | 39.9 | 3.4
CCc1cc(CC)c(C=C2C(=O)Nc3ccc(S(=O)(=O)N4CCOCC4)cc32)[nH]1 [10727/F03] | 22.0 | 36.8
O=C1Nc2ccc(S(=O)(=O)Nc3ccc(C(F)(F)F)cc3)cc2C1=Cc1cc(O)ccc1O [10727/E10] | 96.6 | 85.1
CNS(=O)(=O)c1ccc2c(c1)C(=Cc1coc3ccccc3c1=O)C(=O)N2 [10727/D07] | 50.6 | 10.5
O=C1Nc2c(Br)cc(Br)cc2C1=Cc1ccc2c(c1)Cc1ccccc1-2 [10728/A06] | 19.7 | 17.2
CNS(=O)(=O)c1ccc2c(c1)C(=Cc1cc3c(cc1Cl)OCO3)C(=O)N2 [10727/D06] | 24.4 | 8.6
COc1cccc(C=C2C(=O)Nc3ccc(CCCl)cc32)c1OC [10727/G11] | -0.8 | -3.5
COc1cccc(C=C2C(=O)Nc3ccc(S(=O)(=O)Nc4ccc(C(F)(F)F)cc4)cc32)c1OC [10727/E11] | -5.4 | -33.4
COc1cccc(OC)c1C=C1C(=O)Nc2ccc(I)cc21 [10728/B03] | 74.4 | -36.6
O=C1Nc2ccc(S(=O)(=O)N3CCOCC3)cc2C1=Cc1cc(Cl)cc(Br)c1O [10727/F04] | 92.0 | 17.9

Compound | Met Kinase % Inhibition (MET) [%] | Biochem EGFR %Inhibition (EGFR) [%]
O=C(O)COc1ccccc1C=C1C(=O)Nc2c(Br)cc(Br)cc21 [10728/A10] | 77.2 | -3.4
N#Cc1ccc(C=C2C(=O)Nc3ccc(S(=O)(=O)Nc4ccc(C(F)(F)F)cc4)cc32)cc1 [10727/E09] | 28.4 | 15.1
O=C1Nc2c(Br)cc(Br)cc2C1=Cc1ccc2ccccc2c1O [10718/A04] | 81.7 | 27.3
O=C1Nc2ccc(I)cc2C1=Cc1c(F)cccc1C(F)(F)F [10728/B09] | 81.7 | 31.7
Cc1c(Br)ccc2c1C(=Cc1cc(C(F)(F)F)ccc1F)C(=O)N2 [10728/C08] | 25.5 | 17.5
O=C1Nc2c(Br)cc(Br)cc2C1=Cc1cccc(C(F)(F)F)c1F [10728/A07] | 28.5 | 59.6
COc1cc(N(C)C)ccc1C=C1C(=O)Nc2c(Br)cc(Br)cc21 [10728/A05] | 31.8 | 17.7
CCOC(=O)c1cc(C=C2C(=O)Nc3c(Br)cc(Br)cc32)oc1C [10718/A06] | 61.3 | 19.4
CNS(=O)(=O)c1ccc2c(c1)C(=Cc1ccc(N(C)C)cc1OC)C(=O)N2 [10728/D05] | 29.5 | 12.7
COc1cccc(OC)c1C=C1C(=O)Nc2ccc(Br)c(C)c21 [10728/C03] | 16.9 | 9.7
N#Cc1ccc(C=C2C(=O)Nc3ccc(S(=O)(=O)N4CCOCC4)cc32)cc1 [10727/F09] | 9.3 | -2.0
COc1cc(C=C2C(=O)Nc3ccc(I)cc32)cc2c1OCO2 [10728/B11] | 80.3 | 48.2
COc1cccc(C=C2C(=O)Nc3ccc(S(=O)(=O)N4CCOCC4)cc32)c1OC [10727/F11] | -3.0 | -2.6
N#Cc1ccc(C=C2C(=O)Nc3ccc(CCCl)cc32)cc1 [10727/G09] | 18.8 | -9.7
N#Cc1cccc(C=C2C(=O)Nc3ccc(CCCl)cc32)c1 [10727/G08] | 21.8 | -19.6
O=C1Nc2ccc(CCCl)cc2C1=Cc1coc2ccccc2c1=O [10727/G07] | 29.6 | 5.4
Cc1c(Br)ccc2c1C(=Cc1ccccc1OCC(=O)O)C(=O)N2 [10728/C10] | 28.7 | 4.4
COc1cc(C=C2C(=O)Nc3ccc(Br)c(C)c32)cc(OC)c1 [10728/C04] | 33.6 | 16.1
COc1cc(N(C)C)ccc1C=C1C(=O)Nc2ccc(Br)c(C)c21 [10728/C05] | 33.7 | 16.1
